The text below walks through data of ChEMBL document CHEMBL1148044, “Isorawsonol and related IMP dehydrogenase inhibitors from the tropical green alga Avrainvillea rawsonii” (J Nat Prod, 1994).

For orientation: IC50 means the concentration that gives 50% inhibition.

The test can be described thus: Inhibition of human recombinant IMPDH assessed as NADH formation by spectrophotometry.

For `OCc1c(Cc2ccc(O)c(Br)c2)c(O)c(O)c(Br)c1Cc1cc(Br)c(O)c(O)c1Cc1ccc(O)c(Br)c1` [ISORAWSONOL], the half-maximal inhibitory concentration (IC50) (read-out: IC50) is 7.4 µM.
Same read-out and setting: the value for `COCc1cc(Br)c(O)c(O)c1Cc1cc(Br)c(O)c(Cc2cc(Br)c(O)c(O)c2Cc2ccc(O)c(Br)c2)c1` [RAWSONOL] was 10 µM.
`OCc1cc(O)c(O)c(Br)c1`: the IC50 entry is reported as “Not Active”.
On the same count and under the same terms, under `COCc1cc(Br)c(O)c(O)c1Cc1ccc(O)c(Br)c1` [AVRAINVILLEOL METHYL ETHER] stands “Not Active”.
With `OCc1cc(Br)c(O)c(O)c1Cc1ccc(O)c(Br)c1` [AVRAINVILLEOL], the IC50 (read-out: IC50) amounted to 18 µM.
